Experimental data from article PMC9609317, “Evaluation of Metabolism of a Defined Pesticide Mixture through Multiple In Vitro Liver Models” (Toxics, 2022).

What was measured:
[1] = system: induced pluripotent stem cell-derived hepatocytes (iHep) suspension; experiment: In vitro hepatocyte clearance in iHep suspension, targeted LC-MS/MS and GC-MS/MS; format: in vitro ADME, human; conditions: 1 µM equimolar mixture, approximate values
Procedure: (§1) Suspension assays using iHep were performed as previously detailed with slight modification. In brief, pre-differentiated iHep were suspended in iHep maintenance media and adjusted to the cell concentration of 1 × 10^6 cells/mL. A portion of the cell working stock was heated at 95 °C for five minutes to serve as negative control. Five hundred microliters of the chemical stock (20 chemicals, 2 or 10 µM each) were spiked in 500 µL of the cell working stock or heat-inactivated cell control to a final cell density of 5 × 10^5 cells/mL. Fifty microliters were removed subsequently at 0, 60, 120, and 240 min to individual 1.5 mL Eppendorf tubes for further sample extraction detailed below. Each experimental condition was replicated three times.
Sample extraction procedures and chromatographic conditions were previously reported in [34]. In brief, each sample (50 µL) was spiked with 10 µL of 10 µM internal standards, mixed with 100 µL of chilled acetonitrile, and then centrifuged at 10,000× g for 5 min. The supernatant was dried under vacuum using SpeedVac (Savant SPD1010, Beckman Coulter, Brea, CA, USA) and reconstituted with 50 µL of aqueous mobile phase prior to analyses. LC-MS/MS analysis was performed using 1290 Infinity II LC and 6470 triple quadrupole mass spectrometer (both instruments from Agilent Technologies, Santa Clara, CA, USA). Sample extract (10 µL) was chromatographed on a ZORBAX SSHD Eclipse Plus C18 column (3.0 × 50 mm, 1.8 µm, Cat No.: 959757-302; Agilent Technologies) with a guard column (2.1 × 5 mm, 1.8 µm, Cat No.: 821725-901; Agilent Technologies), and ionized using electrospray ionization. Analytical response was acquired in both positive and negative modes.
For positive ion compounds, mobile phases consisted of 0.1% formic acid in water (A) and 0.1% formic acid in methanol (B) using the following gradient: 2% B held for 1 min, B increased to 80% by 3 min, B increased to 95% by 4 min, B decreased to 2% by 5 min and held for 3 min for a total run time of 8 min per sample at a flow rate of 0.4 mL/min. For negative ion compounds, the LC gradient and flow rate were the same as in positive mode, except that mobile phase A was water and mobile phase B was acetonitrile.
Fifty microliters of media sample were spiked with 10 µL of 10 µM internal standards, mixed with 50 µL of methanol and 200 µL of pentane: diethyl ether (1:1 v/v), vortexed briefly, and then centrifuged at 600× g for 5 min. Organic layer supernatants were transferred to a 2 mL amber vial and concentrated under nitrogen prior to GC analysis. Detection of analytes was achieved using a 7890B GC and 7010B triple quadrupole mass spectrometer (both from Agilent Technologies). Samples were injected (1 µL) in splitless mode. Analytes were separated with a VF-5ms GC column (60 m × 250 µm × 0.25 µm, Cat No.: CP8960; Agilent Technologies) and ionized using electron ionization. The column head pressure was set at 21.5 psi (148,237 Pa) with a constant flow rate at 1.2 mL/min using helium gas. Initial column temperature was held at 70 °C for 5 min, increased to 150 °C at 50 °C/min, ramped to 280 °C at 4 °C/min, and then held […]. The total run time was 42.1 min. The injector temperature was set at 250 °C. The ion source and auxiliary transfer line temperatures were 300 °C. Electron multiplier voltage was set at 1884 V. Ultra-high purity nitrogen gas was used as the collision gas for all MS/MS experiments, and collision gas pressure was set at 16.8 psi (115,832 Pa).
In vitro hepatocyte clearance (Clin vitro) of each chemical was estimated by substrate depletion approach assuming first-order kinetics for compound elimination: Clin vitro = kV/N, where k = first-order elimination rate constant, V = incubation volume, and N = number of cells in the incubation. […]

[2] = system: induced pluripotent stem cell-derived hepatocytes (iHep) suspension; experiment: iHep suspension, nontargeted IMS-MS analysis (clearance, metabolite formation, mass balance); format: in vitro ADME, human; conditions: for CLHep average, Nontargeted Analyses (IMS-MS): 1µM mixture; for Level of metabolism through nontargeted methods: % remaining by IMS-MS
Procedure: as §1
All nontargeted analyses were performed using a 6560 IMS-QTOF MS (Agilent Technologies) as detailed previously. All individual standards for pesticide parent compounds (n = 20) and known metabolites (n = 10) were directly injected in triplicate into the electrospray ionization (ESI) source (positive and negative mode) and atmospheric pressure photo-ionization (APPI, negative mode only) to obtain collision cross section (CCS) and mass-to-charge ratio (m/z) values. Blanks were injected between standards to reduce the likelihood of carryover. For sample analyses, ESI was chosen as the optimal source to detect analytes in either positive or negative mode. During IMS-MS analyses, ions were passed through the inlet glass capillary, focused by a high-pressure ion funnel, and accumulated in an ion funnel trap. Next, ions were pulsed into the 78.24 cm-long IMS drift tube filled with nitrogen gas at a pressure of approximately 3.95 torr (527 Pa). Ions exiting the drift tube were refocused by a rear ion funnel prior to quadrupole time-of-flight (QTOF) MS detection. Detailed instrumental settings in ESI mode can be found in Table S1. Prior to instrumental analysis, the IMS-MS was tuned and a mass calibration was performed using Agilent Tune Mix from the manufacturer (Cat No.: G2421-60001, Agilent Technologies).
In vitro hepatocyte clearance (Clin vitro) of each chemical was estimated by substrate depletion approach assuming first-order kinetics for compound elimination: Clin vitro = kV/N, where k = first-order elimination rate constant, V = incubation volume, and N = number of cells in the incubation. Clin vitro was further scaled up to the intrinsic hepatocyte clearance (Clint) according to the equation [38]:Clint = Clin vitro × HPGL × Vl(1) where HPGL = hepatocytes per gram liver (137 × 10^6 cells/g) and Vl = volume of the whole liver (1820 g).

CCOP(=S)(OCC)Oc1nc(Cl)c(Cl)cc1Cl [Chlorpyrifos]
Clearance rate in suspension cultures [1]: 5 to 14 µL/min/10^6 hepatocytes
CLHep average, Nontargeted Analyses (IMS-MS) [2]: 7.82 µL/min/106 hepatocytes
Level of metabolism through nontargeted methods ([2]; 1 µM mixture): high levels of metabolism

CCOP(=S)(OCC)Oc1cc(C)nc(C(C)C)n1 [Diazinon]
Clearance rate in suspension cultures [1]: 5 to 14 µL/min/10^6 hepatocytes
CLHep average, Nontargeted Analyses (IMS-MS) [2]: 2.285 µL/min/106 hepatocytes

CCOP(=S)(OCC)SCSP(=S)(OCC)OCC [Ethion]
Clearance rate in suspension cultures [1]: 5 to 14 µL/min/10^6 hepatocytes
CLHep average, Nontargeted Analyses (IMS-MS) [2]: 5.216 µL/min/106 hepatocytes
Level of metabolism through nontargeted methods ([2]; 1 µM mixture): high levels of metabolism

CCOP(=S)(OCC)SCCSCC [Disulfoton]
Clearance rate in suspension cultures [1]: 5 to 14 µL/min/10^6 hepatocytes
CLHep average, Nontargeted Analyses (IMS-MS) [2]: 5.305 µL/min/106 hepatocytes
Level of metabolism through nontargeted methods ([2]; 1 µM mixture): high levels of metabolism

O=[N+]([O-])c1ccc(O)c([N+](=O)[O-])c1 [2,4-Dinitrophenol]
Clearance rate in suspension cultures [1]: 5 to 14 µL/min/10^6 hepatocytes
CLHep average, Nontargeted Analyses (IMS-MS) [2]: 8.886 µL/min/106 hepatocytes
Level of metabolism through nontargeted methods ([2]; 1 µM mixture): high levels of metabolism

CCOP(O)(=S)OCC [diethylthiophosphate]
Metabolite formation (IMS-MS abundance) ([2]; 1 µM mixture, relative abundance among the five detected metabolites): formed at the highest amount

COP(=S)(OC)SCn1nnc2ccccc2c1=O [Azinphos-methyl]
Clearance rate in suspension cultures [1]: 5 to 14 µL/min/10^6 hepatocytes
CLHep average, Nontargeted Analyses (IMS-MS) [2]: 8.987 µL/min/106 hepatocytes
Level of metabolism through nontargeted methods ([2]; 1 µM mixture): high levels of metabolism
